Results published in patent US4883869A, “Novel beta-lactams containing amino acid substituents” (The Upjohn Company, priority 1988, dated 1989).
Counter-ions that a name gives are not always drawn.

Tests used:
Test in all cases: Minimum inhibitory concentration by agar dilution, Mueller Hinton Agar (NCCLS M7-A)
Type in all cases: cell-based
Streptococcus faecalis = details: Enterococcus faecalis; Culture No. 694; MHA, 35° C., 20 hours
Description: (§1) The compounds of this invention and their respective pharmaceutically acceptable salts have antibiotic activity against a variety of gram-negative bacteria including Escherichia coli, Klebsiella pneumoniae, and Pseudomonas aeruginosa. The compounds are useful for treating bacterial infections in animals, including and most preferably humans. Compounds of the invention are tested for in vitro antimicrobial activity using standard testing procedures such as the determination of minimum inhibitory concentration (MIC) by methods described in "Methods for Dilution Antimicrobial Susceptibility Tests for Bacteria That Grow Aerobically" (M7-A) Published December 1985 by the National Committee for Clinical Laboratory Standards, 771 East Lancaster Avenue, Villanova, PA 19084. Briefly, MIC values are determined in unsupplemented Mueller Hinton Agar (MHA). The compounds tested are diluted serially into molten MHA at 47° C. The agar is poured into petri dishes and allowed to harden. The various bacteria used for testing are grown overnight on MHA at 35° C. and transferred to Tryptiease Soy Broth (TSB) until a turbidity of 0.5 McFarland standard is obtained. The bacteria are diluted one to twenty in TSB and inoculated on the plates (1 μl using a Steers replicator).

Streptococcus pneumoniae = details: Culture No. 41, MHA, 35° C., 20 hours
Description: as §1

Streptococcus pyogenes = details: Culture No. 152, MHA, 35° C., 20 hours
Description: as §1

Klebsiella pneumoniae = details: Culture No. 58, MHA, 35° C., 20 hours
Description: as §1

Enterobacter cloacae = details: 20 h, 35° C.
Description: as §1

Staphylococcus aureus = details: MHA, 35° C., 20 hours; for MIC: Staphylococcus aureus, Culture No. 6675
Description: as §1

Serratia marcescens = details: Culture No. 6888, MHA, 35° C., 20 hours
Description: as §1

Klebsiella oxytoca = details: 20 h, 35° C.
Description: as §1

Citrobacter freundii = details: Culture No. 3507, MHA, 35° C., 20 hours
Description: as §1

Escherichia coli = details: 20 h, 35° C.
Description: as §1

Pseudomonas aeruginosa = details: 20 h, 35° C.
Description: as §1

Proteus vulgaris = details: Culture No. 9679, MHA, 35° C., 20 hours
Description: as §1

| MIC (Streptococcus faecalis) [mg/L] | MIC (Streptococcus pneumoniae) [mg/L] | MIC (Streptococcus pyogenes) [mg/L] | MIC (Klebsiella pneumoniae) [mg/L] | MIC (Enterobacter cloacae; Culture No. 9381, MHA) [mg/L] | MIC (Enterobacter cloacae; Culture No. 9382, MHA) [mg/L] | MIC (Staphylococcus aureus) [mg/L] | MIC (Serratia marcescens) [mg/L] | MIC (Klebsiella oxytoca; Culture No. 9383, MHA) [mg/L] | MIC (Klebsiella oxytoca; Culture No. 9384, MHA) [mg/L] | MIC (Citrobacter freundii) [mg/L] | MIC (Escherichia coli; Culture No. 311, MHA) [mg/L] | MIC (Escherichia coli; Culture No. 9379, MHA) [mg/L] | MIC (Escherichia coli; Culture No. 9380, MHA) [mg/L] | MIC (Pseudomonas aeruginosa; Culture No. 6432, MHA) [mg/L] | MIC (Pseudomonas aeruginosa; Culture No. 6676, MHA) [mg/L] | MIC (Pseudomonas aeruginosa; Culture No. 9191, MHA) [mg/L] | MIC (Pseudomonas aeruginosa; Culture No. 30133, MHA) [mg/L] | SMILES | Minimum Inhibitory Concentration (Staphylococcus aureus; Culture No. 3665) [MCG per ML] | Minimum Inhibitory Concentration (Staphylococcus aureus; Culture No. 6685) [MCG per ML] | further results |
| --- | --- | --- | --- | --- | --- | --- | --- | --- | --- | --- | --- | --- | --- | --- | --- | --- | --- | --- | --- | --- | --- |
| > 128 | 128 | 16 | 0.125 | 64 | 0.25 | > 128 | 0.5 | 1 | 0.125 | 0.25 | 0.125 | 0.25 | 0.25 | 64 | 8 | 8 | 16 | NCC(=O)OCC1C(NC(=O)C(=NOCC(=O)O)c2csc(N)n2)C(=O)N1S(=O)(=O)O (mixture of isomers) [Compound 11, Cis-(±)-3-[[2'-(2"-amino-4"-thiazolyl)-(Z)-2'-(1'"-carboxymethoxy)imino]acetamido]-4-[N-glycinoyloxymethyl]-2-oxo-1-azetidinesulfonic acid] | > 128 | > 128 | MIC (Proteus vulgaris): 0.125 mg/L |
| > 128 | 64 | 16 | 0.06 | 64 | 0.125 | > 128 | 0.25 | 0.5 | 0.06 | 0.125 | 0.06 | 0.125 | 0.25 | 8 | 4 | 4 | 8 | Nc1nc(C(=NOCC(=O)O)C(=O)NC2C(=O)N(S(=O)(=O)O)C2COC(=O)CNC=O)cs1 (mixture of isomers) [Compound 7, Cis-(±)-[2'-(2"-amino-4"-thiazolyl)-(Z)-2'-(1"-carboxymethoxy)imino]acetamido-4-[N-formylglycinoyloxymethyl]-2-oxo-1-azetidinesulfonic acid monopotassium salt] | > 128 | > 128 | MIC (Escherichia coli; Culture No. 9451, MHA): 0.125 mg/L; MIC (Proteus vulgaris): < 0.03 mg/L |
